This data set can be described thus: gradient 5% acetonitrile 3 min, to 50% in 2 min, to 85% in 15 min, held 3 min, 100 µL/min. To be noted: column: Zorbax Extend-C18 2.1 x 50 mm; eluents: water / acetonitrile, 0.1% formic acid. An outline of the steps: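 Each retention time is based on an adduct peak selected computationally and verified by manual inspection. Measurements used HPLC–quadrupole time-of-flight mass spectrometry in positive and negative ionization mode on mixtures of ~100 pure standards. Chromatography ran on a Zorbax Extend-C18 column (2.1 × 50 mm, 1.8 μm) at 100 μL/min with water and acetonitrile, each containing 0.1% formic acid, and dead and dwell volumes of 40 μL and 900 μL.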
Take `O=C([C@@H]1C[C@H](F)CN1S(=O)(=O)Cc1ccccc1F)N1CCc2ccccc2C1`: the RP-LC retention time turned out to be 919 s.

Consider `O=C(CN1C(=O)CCc2cc(Br)ccc21)NCCc1ccccc1`, for which the RP-LC retention time was 870 s.

In turn, `CCOCCCNC(=O)C1CCCN(c2nnc(C)c3c(C)n(-c4ccc(OC)cc4)nc23)C1` (centres undefined) displayed an RP-LC retention time of 665 s.

`COCCN(C)C(=O)c1cn(C2CN(S(=O)(=O)C(C)C)C2)nn1` gave an RP-LC retention time of 635 s.

In the case of `CCOC(=O)C1C(=O)C(C(=O)OCC)C(c2ccccc2)NC1c1ccccc1` (centres undefined), the RP-LC retention time was 832 s.

With `O=C(CN1C(=O)C(C(=O)N2CCCC2)Sc2ccccc21)N1CCN(c2ccccc2F)CC1` (centres undefined), the RP-LC retention time was 859 s.

Consider `O=C(NC1CCCc2ccccc21)c1ccc2c(c1)OCCCO2` (centres undefined), for which the RP-LC retention time was determined as 958 s.

In turn, `O=C(CSc1nnc2c3cc(-c4ccc(F)cc4)nn3ccn12)Nc1ccccc1F` yielded an RP-LC retention time of 881 s.

The molecule `CCc1ccc(OCc2nc(CCN(C)C(=O)c3cccs3)no2)cc1` yielded an RP-LC retention time of 924 s.

Turning to `COc1ccc(N2CCN(C(=O)C3CCCN(c4cnc5nccnc5c4)C3)CC2)cc1` (centres undefined), the RP-LC retention time is 737 s.

On to `O=C(NCCCN1CCCCC1)C1CCCN(c2ncc(-c3cccc(F)c3)cn2)C1` (centres undefined), for which the RP-LC retention time is 684 s.

`COc1ccc(N2CCN(C(=O)c3ccc4c(c3)NC(=O)C3CCCCN43)CC2)cc1` (centres undefined) gave an RP-LC retention time of 756 s.

`Cc1ccc(-n2nc(C)c3c(C)c(CCC(=O)NCCc4c[nH]c5ccccc45)c(C)nc32)cc1C` registered an RP-LC retention time of 1150 s.

For `O=C(CNC(=O)c1cccc(F)c1)Nc1nc2ccccc2[nH]1`, the RP-LC retention time was 613 s.

In turn, `O=C(Nc1ccccc1F)C1CCN(c2cc(N3CCCCC3)ncn2)CC1` returned an RP-LC retention time of 689 s.

For the molecule `CC(C)Cn1cc(NC(=O)N2CCN(c3ccccn3)CC2)c2ccccc2c1=O`, the RP-LC retention time came to 573 s.

For the molecule `CCc1nnc(-c2cc(C)n(CC(=O)Nc3cc(OC)cc(OC)c3)c2C)o1`, the RP-LC retention time is 807 s.

Molecule `CCc1nc2c(NC(=O)c3cc(F)cc(F)c3)cccn2n1` gave an RP-LC retention time of 851 s.

`Cn1ccc2cc(S(=O)(=O)N3CCCC(C(=O)NCCN4CCCCC4)C3)ccc21` (centres undefined) gave an RP-LC retention time of 654 s.

As for `Cc1ccccc1Cc1nc(-c2ccc3c(c2)nnn3CCN2CCOCC2)no1`, the RP-LC retention time was found to be 692 s.

In the case of `O=C(CN1C(=O)CSc2ccc(C(=O)N3CCCCC3)cc21)NC1CCCCCC1`, the RP-LC retention time turned out to be 839 s.

In turn, `CCC(=O)Nc1ccc(-n2cnc(C(=O)NC(C)c3ccccc3)c2)nc1` (centres undefined) returned an RP-LC retention time of 722 s.

As to `CCOC(=O)c1noc2nc(C)nc(NCC3CCN(Cc4cccc(Cl)c4)CC3)c12`, the RP-LC retention time is 696 s.

The molecule `COCCn1cc(CC(=O)NC2CCCCCC2)c2cccnc21` returned an RP-LC retention time of 746 s.

Molecule `O=C(CN1CCC(c2nc(-c3cccs3)no2)CC1)N1CCN(c2ccccc2)CC1` yielded an RP-LC retention time of 702 s.

Consider `Cn1c(=O)n([C@H]2CCN(C(=O)C3(c4ccccc4)CC3)C2)c2ncccc21`, for which the RP-LC retention time is 733 s.

In turn, `CN(CC1CCOCC1)C(=O)c1ccc(Br)cc1` gave an RP-LC retention time of 761 s.

`Cc1ccc(NS(=O)(=O)c2ccc3c(c2)C(=O)N(C)c2ncccc2O3)cc1C` returned an RP-LC retention time of 970 s.

`CC1CCN(Cc2csc(N3CCN(C(=O)CSc4ccccc4)CC3)n2)CC1`: the RP-LC retention time stood at 1130 s.

In the case of `NC(=O)C1CCN(C(=O)Cc2csc(NC(=O)Nc3ccc(Cl)cc3)n2)CC1`, the RP-LC retention time came to 684 s.

Molecule `Cc1ccc2c(c1)C(=O)NC1(CCN(C(=O)NCc3ccc(F)cc3)CC1)N2C` had an RP-LC retention time of 761 s.

Regarding `CN(C)C(=O)c1cc2c(s1)CCC(C(=O)NC1CCN(Cc3ccccc3)CC1)C2` (centres undefined), the RP-LC retention time is 598 s.

As for `CCOc1ccccc1N1CCN(c2cc(C(=O)O)c3cc(NC(=O)CC)ccc3n2)CC1`, the RP-LC retention time was determined as 634 s.

With `CCN1CCOc2ccc(NC(=O)c3ccc4c(c3)OCO4)cc2C1=O`, the RP-LC retention time amounted to 675 s.

Molecule `O=C(c1ccc2c(c1)OCO2)N1CCN(c2ncnc3c2CCC3)CC1` registered an RP-LC retention time of 588 s.

Take `CC(C)(C)C(=O)N1C[C@@H](CO)[C@H](c2nc(-c3ccncc3)no2)C1`: the RP-LC retention time came to 631 s.

In turn, `CCn1ccc2cc(S(=O)(=O)N3CCCC(C(=O)NCCC(C)C)C3)ccc21` (centres undefined) registered an RP-LC retention time of 980 s.

`O=C(CCc1c(-c2ccc(Cl)cc2)nc2ccccn12)NC1CCCC1`: the RP-LC retention time is 638 s.

For the molecule `CCNC(=O)c1nc2cc(C)c(C)cc2n(C)c1=O`, the RP-LC retention time turned out to be 698 s.

For `CC(C)NC(=O)N1CCCC(c2cccc(C(=O)NCCN3CCCCC3)c2)C1` (centres undefined), the RP-LC retention time turned out to be 608 s.

Consider `Cc1ccc(NC(=O)N2CCCC(Cn3cnc4cccnc43)C2)c(C)c1` (centres undefined), for which the RP-LC retention time was determined as 680 s.

The molecule `O=C(C1=CN(c2cccc(F)c2)c2ccccc2S1(=O)=O)N1CCOCC1` displayed an RP-LC retention time of 730 s.

Molecule `O=C(Cc1cccn1-c1ccc(F)cc1)N1CCOCC1` registered an RP-LC retention time of 760 s.

For `Cc1cc(=O)n(CC(=O)Nc2ccc(F)cc2C)c(N2CCCCC2)n1`, the RP-LC retention time turned out to be 695 s.

Molecule `CC(C)c1noc(-c2ccc(-n3cnc(C(=O)N4CCc5ccccc5C4)c3)nc2)n1` had an RP-LC retention time of 1010 s.

Take `CCCCN(C)S(=O)(=O)c1cc(-c2nnc(C)o2)co1`: the RP-LC retention time worked out at 821 s.

`COC(=O)c1ccccc1NC(=O)c1c(O)c2cccc3c2n(c1=O)CC3` registered an RP-LC retention time of 1170 s.

Regarding `CS(=O)(=O)N1CCCC1C(=O)Nc1ccc(F)cc1` (centres undefined), the RP-LC retention time came to 693 s.

`CC(=O)Nc1ccc(NC(=O)C2CCN(S(=O)(=O)c3ccc4c(c3)sc(=O)n4C)CC2)cc1` gave an RP-LC retention time of 686 s.

In the case of `Cc1cc(C)n(CC(=O)N2CCC[C@H]2c2nc(-c3ccccc3)n[nH]2)n1`, the RP-LC retention time amounted to 641 s.

`O=C1NCCCn2cc(S(=O)(=O)NCc3cccc(C(F)(F)F)c3)cc21` gave an RP-LC retention time of 718 s.

For the molecule `Cc1noc(/C=C/c2ccc(F)cc2F)c1S(=O)(=O)N1CCC(C(=O)Nc2nccs2)CC1`, the RP-LC retention time amounted to 1050 s.

On to `Cc1sc(-c2cc(C(F)(F)F)on2)cc1S(=O)(=O)N1CCc2ccccc21`, for which the RP-LC retention time stood at 1270 s.

The molecule `O=C(CN1CCSc2ccccc21)NCCCN1CCN(Cc2ccccc2)CC1` had an RP-LC retention time of 666 s.

Take `COc1ccc(C2Cn3cnc(C(=O)N4CCC(C(=O)NC5CCC(C)CC5)CC4)c3CO2)cc1` (centres undefined): the RP-LC retention time stood at 821 s.

With `CCN(Cc1ccccc1)C(=O)c1ncn2c1C(=O)N(C1CC1)C(C)(C(=O)NCc1ccccc1)C2` (centres undefined), the RP-LC retention time is 742 s.

In turn, `CCCn1c(=O)sc2cc(S(=O)(=O)N3CCC(C(=O)Nc4cc(C)ccc4C)CC3)ccc21` showed an RP-LC retention time of 985 s.

In turn, `COc1ccc(OC)c(NC(=O)Cn2nc(N3CCOCC3)c3ccccc3c2=O)c1` gave an RP-LC retention time of 796 s.

Turning to `O=C1c2ccccc2C(=O)c2c1cccc2N1CCCC(CO)C1` (centres undefined), the RP-LC retention time was determined as 635 s.

In turn, `COc1cccc(-c2nc3nc(C)c(CCC(=O)NC4CCCCC4)c(C)n3n2)c1` registered an RP-LC retention time of 827 s.

Regarding `COC(=O)CNC(=O)Nc1ncc(-c2ccc(OC)cc2)n1C`, the RP-LC retention time was 607 s.

`CC(Cc1ccco1)NC(=O)c1nc(Nc2ccc(F)cc2)c2ccccc2n1` (centres undefined) showed an RP-LC retention time of 855 s.

In the case of `COc1ccc(OCc2nc(C3CN(C(=O)C4(c5ccccc5)CC4)C3)no2)cc1`, the RP-LC retention time stood at 904 s.

As for `Cc1nn(CC(=O)N(C)Cc2ccccc2)c(=O)c2nc(-c3ccccc3)sc12`, the RP-LC retention time was 942 s.

`O=C(CSc1ncc(CO)n1CC(=O)NC1CC1)Nc1ccc(F)cc1F` registered an RP-LC retention time of 565 s.

The molecule `CCc1nnc(C2CCN(C(=O)c3cc(C)on3)CC2)s1` showed an RP-LC retention time of 624 s.

For the molecule `Cn1c(=O)c2nc(S(=O)(=O)CCC(=O)Nc3ccc(F)c(Cl)c3)n(C)c2n(C)c1=O`, the RP-LC retention time worked out at 756 s.

`COc1ccc(-c2noc(C3CC(=O)N(c4ccc5c(c4)OCO5)C3)n2)c(OC)c1` (centres undefined) returned an RP-LC retention time of 816 s.

The molecule `Cc1nc2nc(-c3ccc(Cl)cc3)nn2c(C)c1CC(=O)NC(C)C` showed an RP-LC retention time of 790 s.

In turn, `COc1ccc(NC(=O)N2CCC(n3cnc4cccnc43)CC2)cc1OC` showed an RP-LC retention time of 581 s.

`CCOc1ccc(-c2nc3ncccn3c2NCc2ccccc2)cc1OC` had an RP-LC retention time of 697 s.

Regarding `CCNC(=O)N1CCOc2cc(C)ccc21`, the RP-LC retention time is 768 s.

In the case of `CCCn1c(=O)sc2cc(S(=O)(=O)N3CCC(C(=O)N4CCCCCC4)CC3)ccc21`, the RP-LC retention time came out at 937 s.

Regarding `CCCC(=O)N1C[C@H]2C[C@H](C1)[C@H]1CCCC(=O)N1C2`, the RP-LC retention time worked out at 601 s.

The molecule `CC1=NOC(C)(CNS(=O)(=O)c2ccc(F)cc2)C1` (centres undefined) returned an RP-LC retention time of 728 s.

Turning to `COc1ccc2c(c1)c(CN1CCC(C(=O)NCc3ccccc3Cl)CC1)cn2C`, the RP-LC retention time came out at 699 s.

`O=C(NCCn1c(=O)n(Cc2ccc(F)cc2)c2cccnc21)C1CCCC1` registered an RP-LC retention time of 782 s.

In turn, `CCOc1cc(-c2cccc(Cl)c2)nc2ccc(C(=O)N3CCN(c4ccccn4)CC3)cc12` came in with an RP-LC retention time of 692 s.

Turning to `Cc1ccc2cc(CCC(=O)N3CCN(c4ncccn4)CC3)c(=O)[nH]c2c1`, the RP-LC retention time stood at 670 s.

The values are drawn from the METLIN SMRT retention time set (Domingo-Almenara et al. 2019).
